Laboratory results reported in patent publication US20220087983A1, “ACTIVATING PYRUVATE KINASE R” (FORMA Therapeutics, Inc., priority 2020, published 2022).
Values joined by “and” are separate entries in the source; they are usually repeats but may differ in a detail not shown here. Equal entries are not always repeated.

What was measured:
[1] = cited from earlier work
[2] = Phase 1: hematologic and hemolytic parameters in SCD patients; format: in vivo, human; conditions: blinded 300 mg Compound 1/placebo QD, individual patients Pt 1-3
Excerpt: Laboratory changes relative to pretreatment for each pt in the MD cohort as of Jul. In 2 of 3 SCD MD-1 pts treated with Compound 1/placebo (currently blinded), Hb increased by >1 g/dL, % reticulocytes decreased, and markers of hemolysis were improved after 14 days of treatment (compared to pre-treatment levels). Hematologic parameters returned to pre-treatment levels 4 to 7 days post-treatment (data not shown) without clinical AEs. […]

Row | SMILES | steady state whole blood AUC higher in HbSC than HbSS genotype patients ([1]; HbSC n=11, HbSS n=220) [%] | steady state whole blood Cmax higher in HbSC than HbSS genotype patients ([1]; HbSC n=11, HbSS n=220) [%] | steady state plasma AUC higher in HbSC than HbSS genotype patients ([1]; human, in vivo) [%] | steady state plasma Cmax higher in HbSC than HbSS genotype patients ([1]; human, in vivo) [%] | increase of AUC in plasma with a high-fat, high-calorie meal ([1]; relative to fasted state) [%] | increase of AUC in whole blood with a high-fat, high-calorie meal ([1]; relative to fasted state) [%] | increase of Cmax in plasma with a high-fat, high-calorie meal ([1]; relative to fasted state) [%] | increase of Cmax in whole blood with a high-fat, high-calorie meal ([1]; relative to fasted state) [%] | Hemoglobin ([2]; Day 7 (on Tx)) | Indirect Bilirubin ([2]; Day 7 (on Tx)) | Reticulocytes, % ([2]; Day 7 (on Tx)) | Hemoglobin ([2]; Day 14/15 (EOT)) | Indirect Bilirubin ([2]; Day 14/15 (EOT)) | Reticulocytes, % ([2]; Day 14/15 (EOT))
1 | CC(C)n1nccc1-c1ncccc1COc1cccc(O)c1C=O [voxelotor, 2-hydroxy-6-((2-(1-isopropyl-1H-pyrazol-5-yl)pyridin-3-yl)methoxy)benzaldehyde] | 50 | 45 | 23 | 15 | 42 | 42 | 95 | 45 | – | – | – | – | – | –
2 | O=C([C@H](CO)c1ccccc1)N1CC2=C(C1)CN(S(=O)(=O)c1cnc3c(c1)OCCO3)C2 [Compound 1/Placebo] | – | – | – | – | – | – | – | – | 7.9 g/dL and 8.8 g/dL | 2.5 mg/dL and 0.9 mg/dL and 0.8 mg/dL | 6.8% and 5.8% | 7.5 g/dL and 9.2 g/dL | 3.0 mg/dL and 0.8 mg/dL and 1.0 mg/dL | 0.8% and 4.2%
